In US20250221966A1, “RXFP1 AGONISTS” (BRISTOL-MYERS SQUIBB COMPANY, priority 2021, published 2025):

Molecular target: T1, human RXFP1 (Homo sapiens, UniProt Q9HBX9)
T1 construct: expressed in transfected cells
T1 sequence (Q9HBX9 1-757): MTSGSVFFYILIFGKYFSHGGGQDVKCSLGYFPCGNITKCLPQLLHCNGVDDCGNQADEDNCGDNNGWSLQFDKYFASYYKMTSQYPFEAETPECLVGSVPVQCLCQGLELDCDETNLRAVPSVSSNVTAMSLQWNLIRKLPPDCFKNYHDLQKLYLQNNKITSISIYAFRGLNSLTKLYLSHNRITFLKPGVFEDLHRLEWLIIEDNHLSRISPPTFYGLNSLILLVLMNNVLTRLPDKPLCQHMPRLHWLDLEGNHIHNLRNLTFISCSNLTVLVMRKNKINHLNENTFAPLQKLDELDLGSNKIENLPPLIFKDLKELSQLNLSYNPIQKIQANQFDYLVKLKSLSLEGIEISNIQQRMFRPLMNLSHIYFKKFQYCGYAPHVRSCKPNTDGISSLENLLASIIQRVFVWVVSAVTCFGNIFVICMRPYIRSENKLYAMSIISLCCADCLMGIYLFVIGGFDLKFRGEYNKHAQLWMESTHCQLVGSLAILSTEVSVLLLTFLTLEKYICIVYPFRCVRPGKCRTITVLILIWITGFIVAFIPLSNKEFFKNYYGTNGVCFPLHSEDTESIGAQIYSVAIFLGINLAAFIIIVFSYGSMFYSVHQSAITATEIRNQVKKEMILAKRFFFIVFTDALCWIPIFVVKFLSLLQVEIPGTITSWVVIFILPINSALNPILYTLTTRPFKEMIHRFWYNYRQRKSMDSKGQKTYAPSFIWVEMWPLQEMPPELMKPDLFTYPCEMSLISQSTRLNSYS
Assay: RXFP1 cAMP assay (hRXFP1 HEK293 cAMP assay, HTRF)
Assay type: cell-based
Conditions: HEK293 cells stably expressing human RXFP1, 30 min at room temperature, read-out: cAMP hRXFP1 HEK293 Assay EC50
Summary of the method: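 hRXFP1-HEK293 stable line; HBSS + Ca/Mg, 20 mM HEPES, 0.05% BSA, 0.5 mM IBMX; cpd 0.010 nM–50 μM, 2% DMSO; 30 min RT; lysis, HTRF cAMP detection; 4-PL fit.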

EC50 | SMILES
19 nM | COc1ccc(-c2cc(CC(=O)O)ccc2F)cc1C(=O)N[C@@H]1C2CCC(/C2=C/c2ccccc2)[C@@H]1C(=O)Nc1ccc(F)c(C(F)(F)F)c1 (some centres unmarked) [compound 187]
347 nM | COc1ccc(C2=NOC3COCC23)cc1C(=O)N[C@H]1[C@@H](C(=O)NCc2cc(C)ccc2C(F)(F)F)[C@H]2CC[C@@H]1/C2=C\C1CC1 (some centres unmarked) [compound 659]
214 nM | COc1ccc(-c2cc(C(=O)N3CC[C@H](O)C3)on2)cc1C(=O)N[C@H]1[C@@H](C(=O)Nc2ccc(F)c(C(F)(F)F)c2)[C@H]2CC[C@@H]1/C2=C\C1CC1 [compound 640]
87.1 nM | COc1ccc(C2=NOC3COCC23)cc1C(=O)N[C@H]1[C@@H](C(=O)NCC2CCCC2)[C@H]2CC[C@@H]1/C2=C\C1CC1 (some centres unmarked) [compound 592]
1010 nM | COc1ccc(C2CCCN2CC(C)(C)O)cc1C(=O)N[C@@H]1C2CCC(C2=CC2CC2)[C@@H]1C(=O)Nc1ccc(F)c(C(F)(F)F)c1 (some centres unmarked) [compound 698]
4.5 nM | COc1ccc(C2=NO[C@H]3CC(CO)C[C@@H]23)cc1C(=O)N[C@H]1[C@@H](C(=O)Nc2ccc(F)c(C(F)(F)F)c2)[C@H]2CC[C@@H]1/C2=C\C1CC(F)(F)C1 (some centres unmarked) [compound 840]
606 nM | COc1ccccc1CNC(=O)[C@@H]1[C@H](NC(=O)c2cc(C3=NOC4COCC34)ccc2OC)[C@@H]2CC[C@H]1/C2=C/C1CC1 (some centres unmarked) [compound 681]
1.2 nM | COc1ccc(-c2cnn3c2COCC3)cc1C(=O)N[C@H]1[C@@H](C(=O)N[C@H](C)C2(C)CC2)[C@H]2CC[C@@H]1/C2=C\C1CC1 [compound 745]
1.5 nM | COc1ccc(C2=NO[C@H]3C[C@H](CO)C[C@@H]23)cc1C(=O)N[C@H]1[C@@H](C(=O)N[C@H](C)C2(C)CC2)[C@H]2CC[C@@H]1/C2=C\CC(O)C(F)(F)F (some centres unmarked) [compound 815]
1.2 nM | COc1ccc(C2=NO[C@H]3CC(CO)C[C@@H]23)cc1C(=O)N[C@H]1[C@@H](C(=O)Nc2ccc(F)c(C(F)(F)F)c2)[C@H]2CC[C@@H]1/C2=C\CCF (some centres unmarked) [compound 814]
1.6 nM | CCCOc1c(F)cc(C2=NOC3CC(CO)CC23)cc1C(=O)N[C@H]1[C@@H](C(=O)Nc2ccc(F)c(C(F)(F)F)c2)[C@H]2CC[C@@H]1/C2=C\C1CC1 (some centres unmarked) [compound 779]
4.4 nM | COc1ccc(C2=NO[C@H]3COC[C@@H]23)cc1C(=O)N[C@H]1[C@@H](C(=O)Nc2ccc(F)c(C(F)(F)F)c2)[C@H]2CC[C@@H]1/C2=C\CCC1CC1 [compound 839]
1100 nM | COc1cc(F)c(F)cc1C(=O)N[C@@H]1C2CCC(/C2=C/C2=CCOC2)[C@@H]1C(=O)Nc1ccc(F)c(C(F)(F)F)c1 (some centres unmarked) [compound 58]
1300 nM | COc1ccc(N2CCCC(CO)C2)cc1C(=O)N[C@@H]1C2CCC(/C2=C/C2CC2)[C@@H]1C(=O)Nc1ccc(F)c(C(F)(F)F)c1 (single isomer, unassigned) [compound 704]
1.4 nM | COc1c(F)cc(C2=NOC3CC(CO)CC23)cc1C(=O)N[C@H]1[C@@H](C(=O)N[C@H](C)C2(C(F)(F)F)CC2)[C@H]2CC[C@@H]1/C2=C\C1CC1 (some centres unmarked) [compound 869]
120 nM | COc1cc(F)c(F)cc1C(=O)N[C@@H]1C2CCC(/C2=C/c2cccc(Oc3ccccc3)c2)[C@@H]1C(=O)Nc1ccc(F)c(C(F)(F)F)c1 (some centres unmarked) [compound 46]
3.8 nM | COc1c(F)cc(C2=NOC3CC(CO)CC23)cc1C(=O)N[C@@H]1C2CCC(/C2=C/C2CC2)[C@@H]1C(=O)NC12CC(C#N)(C1)C2 (some centres unmarked) [compound 772]
50.7 nM | COc1ccc(C2=NOC3COCC23)cc1C(=O)N[C@H]1[C@@H](C(=O)NC2CCCC2)[C@H]2CC[C@@H]1/C2=C\C1CC1 (some centres unmarked) [Example 565]
110 nM | COc1cc(F)c(F)cc1C(=O)N[C@@H]1C2CCC(/C2=C/C(=O)OC(C)(C)C)[C@@H]1C(=O)Nc1ccc(F)c(C(F)(F)F)c1 (some centres unmarked) [compound 8]
0.9 nM | COc1ccc(-c2cc(C(COC(=O)Nc3ccccc3)C(F)(F)F)ccc2F)cc1C(=O)N[C@H]1[C@@H](C(=O)Nc2ccc(F)c(C(F)(F)F)c2)[C@H]2CC[C@@H]1/C2=C\C1CC1 (some centres unmarked) [compound 876]
2490 nM | O=C(N[C@H]1[C@@H](C(=O)Nc2ccc(F)c(C(F)(F)F)c2)[C@H]2CC[C@@H]1/C2=C\C1CC1)c1cccc(C2=NOC3COCC23)c1 (single isomer, unassigned) [compound 719]
1.7 nM | COc1ccc(C2=NOC3CC(CO)CC23)cc1C(=O)N[C@H]1[C@@H](C(=O)N[C@H](C)C2(C)CC2)[C@H]2CC[C@@H]1/C2=C\c1csc(C(F)F)n1 (some centres unmarked) [compound 741]

EC50 | SMILES
2.5 nM | COc1c(F)cc(C2=NOC3CC(CO)CC23)cc1C(=O)N[C@H]1[C@@H](C(=O)NCC(C)(C)C)[C@H]2CC[C@@H]1/C2=C\C1CC1 (some centres unmarked) [compound 765]
1370 nM | COc1ccc(N2CCC(NC(=O)OC(C)(C)C)C2)cc1C(=O)N[C@@H]1C2CCC(/C2=C/C(F)(F)F)[C@@H]1C(=O)Nc1ccc(F)c(C(F)(F)F)c1 (some centres unmarked) [compound 334]
21.1 nM | COc1ccc(C2=NOC3COCC23)cc1C(=O)N[C@H]1[C@@H](C(=O)NCC2(C)CC2)[C@H]2CC[C@@H]1/C2=C\C1CC1 (some centres unmarked) [compound 522]
102 nM | COc1ccc(C2=NOC3COCC23)cc1C(=O)N[C@H]1[C@@H](C(=O)Nc2ccccc2C)[C@H]2CC[C@@H]1/C2=C\C1CC1 (some centres unmarked) [compound 596]
1800 nM | COc1ccc(-c2nc(C(=O)O)co2)cc1C(=O)N[C@@H]1C2CCC(C2=C(C)C)[C@@H]1C(=O)Nc1ccc(F)c(C(F)(F)F)c1 (some centres unmarked) [Example 113]
3.4 nM | COc1ccc(C2=NO[C@H]3COC[C@@H]23)cc1C(=O)N[C@H]1[C@@H](C(=O)Nc2ccc(F)c(C(F)(F)F)c2)[C@H]2CC[C@@H]1/C2=C\CC1CCC1 [compound 829]
889 nM | COc1ccc(-c2cc(C(=O)O)ccc2F)cc1C(=O)N[C@@H]1C2CCC(/C2=C/C2CC2)[C@@H]1C(=O)NCCc1cccc(C(F)(F)F)c1 (some centres unmarked) [compound 302]
8 nM | COc1ccc(-c2cccc3c2CN(C(=O)C2CCC2)C3)cc1C(=O)N[C@@H]1C2CCC(/C2=C/C2CC2)[C@@H]1C(=O)Nc1ccc(F)c(C(F)(F)F)c1 (some centres unmarked) [compound 872]
7 nM | COc1ccc(-c2cc(C3=NOC(CO)C3)ccc2F)cc1C(=O)N[C@H]1[C@@H](C(=O)Nc2ccc(F)c(C(F)(F)F)c2)[C@H]2CC[C@@H]1/C2=C\C1CC1 (some centres unmarked) [compound 905]
49 nM | COc1ccc(C2=NOC(CC(=O)O)C2)cc1C(=O)N[C@@H]1C2CCC(/C2=C/C2CC2)[C@@H]1C(=O)Nc1ccc(F)c(C(F)(F)F)c1 (some centres unmarked) [compound 391]
156 nM | COc1ccc(C2=NOC(C3(O)CCCC3)C2)cc1C(=O)N[C@H]1[C@@H](C(=O)Nc2ccc(F)c(C(F)(F)F)c2)[C@H]2CC[C@@H]1/C2=C\C1CC1 (single isomer, unassigned) [compound 619]
2.3 nM | CC12CC(NC(=O)[C@@H]3[C@H](NC(=O)c4cc(C5=NOC6CC(CO)CC56)cc(F)c4OCC4CC4)[C@@H]4CC[C@H]3/C4=C/C3CC3)(C1)C2 (some centres unmarked) [compound 764]
3 nM | COc1ccc(C2=NOC3CC(C(C)(C)O)CC23)cc1C(=O)N[C@H]1[C@@H](C(=O)Nc2ccc(F)c(C(F)(F)F)c2)[C@H]2CC[C@@H]1/C2=C\C1CC1 (single isomer, unassigned) [compound 462]
16 nM | COc1ccc(-c2cc(C(CO)NC(=O)C3CCOCC3)ccc2F)cc1C(=O)N[C@@H]1C2CCC(/C2=C/C2CC2)[C@@H]1C(=O)Nc1ccc(F)c(C(F)(F)F)c1 (some centres unmarked) [compound 257]
1.8 nM | COc1ccc(C2=NO[C@@H]3C[C@H](CO)CN23)cc1C(=O)N[C@H]1[C@@H](C(=O)Nc2ccc(F)c(C(F)(F)F)c2)[C@H]2CC[C@@H]1/C2=C\C1CC1 [compound 846]
4 nM | COc1ccc(C2=NOC3CN(C(=O)OC(C)(C)C)CC23)cc1C(=O)N[C@@H]1C2CCC(/C2=C/C2CC2)[C@@H]1C(=O)Nc1ccc(F)c(C(F)(F)F)c1 (some centres unmarked) [compound 436]
2.7 nM | O=C(N[C@H]1[C@@H](C(=O)Nc2ccc(F)c(C(F)(F)F)c2)[C@H]2CC[C@@H]1/C2=C\C1CC1)c1cc(C2=NOC3CC(CO)CC23)ccc1OCC(F)F (some centres unmarked) [compound 781]
55 nM | COc1ccc(C#N)cc1C(=O)N[C@@H]1C2CCC(/C2=C/c2ccccc2)[C@@H]1C(=O)Nc1ccc(F)c(C(F)(F)F)c1 (some centres unmarked) [compound 128]
88 nM | COc1cc(F)c(F)cc1C(=O)N[C@@H]1C2CCC(/C2=C/c2cnoc2)[C@@H]1C(=O)Nc1ccc(F)c(C(F)(F)F)c1 (some centres unmarked) [compound 39]
17.6 nM | COc1ccc(C2=NOC3CC(C(N)=O)CC23)cc1C(=O)N[C@H]1[C@@H](C(=O)NCC(C)(C)C)[C@H]2CC[C@@H]1/C2=C\C1CC1 (some centres unmarked) [compound 516]
127 nM | CCCC/C=C1\C2CCC1[C@H](C(=O)Nc1ccc(F)c(C(F)(F)F)c1)[C@@H]2NC(=O)c1cc(C2=NOC(CO)C2)ccc1OC (some centres unmarked) [compound 383]
12 nM | COc1ccc(-c2ccc(N3CCOCC3)nc2)cc1C(=O)N[C@@H]1C2CCC(/C2=C/C2CC2)[C@@H]1C(=O)Nc1ccc(F)c(C(F)(F)F)c1 (some centres unmarked) [compound 250]
